PMC5762315, “Inhibition of polo-like kinase 4 (PLK4): a new therapeutic option for rhabdoid tumors and pediatric medulloblastoma” (Oncotarget, 2017)
Where “and” joins values, the source holds several entries; their conditions need not be identical. Identical values can stand only once.

Experiments:
Experiment in all cases: biochemical
Type in all cases: biochemical
various kinases [1] = target: various kinases (Homo sapiens, UniProt Q9HCP0); settings: CSNK1G1 (CK1 gamma 1)
various kinases [2] = target: various kinases (Homo sapiens, UniProt Q9Y243); settings: AKT3 (PKB gamma)
various kinases [3] = target: various kinases (Homo sapiens, UniProt P17948); settings: FLT1 (VEGFR1)
various kinases [4] = target: various kinases (Homo sapiens, UniProt P07949); settings: kinase RET; ZLYTE
various kinases [5] = target: various kinases (Homo sapiens, UniProt P00533, G719S); settings: EGFR (ErbB1) G719S
various kinases [6] = target: T1, various kinases (Homo sapiens, UniProt P41743); settings: kinase PRKCI (PKC iota); ZLYTE
T1 sequence (P41743 1-596): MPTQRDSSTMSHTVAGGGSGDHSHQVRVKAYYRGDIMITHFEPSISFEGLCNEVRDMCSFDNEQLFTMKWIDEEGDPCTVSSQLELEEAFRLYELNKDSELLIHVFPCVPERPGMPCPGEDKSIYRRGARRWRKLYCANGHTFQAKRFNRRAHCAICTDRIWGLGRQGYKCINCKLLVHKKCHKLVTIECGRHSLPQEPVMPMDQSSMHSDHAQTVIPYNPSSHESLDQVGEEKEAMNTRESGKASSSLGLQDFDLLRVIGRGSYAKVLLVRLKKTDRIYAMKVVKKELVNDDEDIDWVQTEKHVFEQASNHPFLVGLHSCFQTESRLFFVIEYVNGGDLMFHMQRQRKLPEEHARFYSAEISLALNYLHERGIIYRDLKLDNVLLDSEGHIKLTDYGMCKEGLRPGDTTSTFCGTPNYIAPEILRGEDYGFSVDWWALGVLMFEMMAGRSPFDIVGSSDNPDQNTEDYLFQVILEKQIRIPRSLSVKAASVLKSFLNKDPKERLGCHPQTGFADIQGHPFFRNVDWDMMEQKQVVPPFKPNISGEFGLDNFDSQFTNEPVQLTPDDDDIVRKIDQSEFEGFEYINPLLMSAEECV

various kinases [7] = target: various kinases (Homo sapiens, UniProt P10721); settings: KIT
various kinases [8] = target: various kinases (Homo sapiens, UniProt P19784); settings: CSNK2A2 (CK2 alpha 2)
various kinases [9] = target: various kinases (Homo sapiens, UniProt Q13177); settings: PAK2 (PAK65)
various kinases [10] = target: various kinases (Homo sapiens, UniProt Q96PY6); settings: NEK1
various kinases [11] = target: various kinases (Homo sapiens, UniProt P48730); settings: CSNK1D (CK1 delta)
various kinases [12] = target: various kinases (Homo sapiens, UniProt P45984); settings: MAPK9 (JNK2)
various kinases [13] = target: T2, various kinases (Homo sapiens, UniProt Q9UHD2); settings: kinase TBK1; ZLYTE
T2 sequence (Q9UHD2 1-729): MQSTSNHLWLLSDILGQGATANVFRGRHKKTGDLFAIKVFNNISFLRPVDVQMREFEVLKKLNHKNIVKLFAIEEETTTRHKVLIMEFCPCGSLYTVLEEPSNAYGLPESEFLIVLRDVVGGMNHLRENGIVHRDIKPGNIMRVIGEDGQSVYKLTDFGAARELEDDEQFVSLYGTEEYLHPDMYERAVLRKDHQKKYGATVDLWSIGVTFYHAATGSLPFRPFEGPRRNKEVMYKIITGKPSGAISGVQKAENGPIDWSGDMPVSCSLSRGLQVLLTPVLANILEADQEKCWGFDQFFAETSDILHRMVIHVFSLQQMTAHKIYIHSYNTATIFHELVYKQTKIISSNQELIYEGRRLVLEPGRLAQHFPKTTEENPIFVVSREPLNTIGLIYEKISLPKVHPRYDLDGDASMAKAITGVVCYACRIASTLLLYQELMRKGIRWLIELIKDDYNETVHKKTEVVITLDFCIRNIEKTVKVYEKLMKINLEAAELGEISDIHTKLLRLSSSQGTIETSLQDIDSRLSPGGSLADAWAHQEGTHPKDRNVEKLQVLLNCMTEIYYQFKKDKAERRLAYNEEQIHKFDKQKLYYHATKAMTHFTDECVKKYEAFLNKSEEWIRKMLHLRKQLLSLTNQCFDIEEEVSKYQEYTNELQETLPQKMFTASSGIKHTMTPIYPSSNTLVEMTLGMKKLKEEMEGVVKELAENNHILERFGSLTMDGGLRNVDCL

various kinases [14] = target: T3, various kinases (Homo sapiens, UniProt Q9BXA7); settings: kinase STK22D (TSSK1); ZLYTE
T3 sequence (Q9BXA7 1-367): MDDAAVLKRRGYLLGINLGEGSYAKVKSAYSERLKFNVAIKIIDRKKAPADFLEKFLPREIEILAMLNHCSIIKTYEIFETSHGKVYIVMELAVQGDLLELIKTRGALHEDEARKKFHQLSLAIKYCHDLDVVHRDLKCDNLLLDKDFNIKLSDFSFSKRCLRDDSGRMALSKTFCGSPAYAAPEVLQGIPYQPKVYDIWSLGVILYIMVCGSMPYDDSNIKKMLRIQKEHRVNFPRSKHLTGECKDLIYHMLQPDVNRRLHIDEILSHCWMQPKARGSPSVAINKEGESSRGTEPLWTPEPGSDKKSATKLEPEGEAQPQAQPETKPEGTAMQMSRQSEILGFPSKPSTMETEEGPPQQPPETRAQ

various kinases [15] = target: various kinases (Homo sapiens, UniProt P51957); settings: NEK4
various kinases [16] = target: various kinases (Homo sapiens, UniProt P07949, V804E); settings: kinase RET V804E; ZLYTE
various kinases [17] = target: various kinases (Homo sapiens, UniProt Q9P0L2); settings: MARK1 (MARK)
Sequence of various kinases (Homo sapiens, UniProt Q9P0L2) (Q9P0L2 whole entry): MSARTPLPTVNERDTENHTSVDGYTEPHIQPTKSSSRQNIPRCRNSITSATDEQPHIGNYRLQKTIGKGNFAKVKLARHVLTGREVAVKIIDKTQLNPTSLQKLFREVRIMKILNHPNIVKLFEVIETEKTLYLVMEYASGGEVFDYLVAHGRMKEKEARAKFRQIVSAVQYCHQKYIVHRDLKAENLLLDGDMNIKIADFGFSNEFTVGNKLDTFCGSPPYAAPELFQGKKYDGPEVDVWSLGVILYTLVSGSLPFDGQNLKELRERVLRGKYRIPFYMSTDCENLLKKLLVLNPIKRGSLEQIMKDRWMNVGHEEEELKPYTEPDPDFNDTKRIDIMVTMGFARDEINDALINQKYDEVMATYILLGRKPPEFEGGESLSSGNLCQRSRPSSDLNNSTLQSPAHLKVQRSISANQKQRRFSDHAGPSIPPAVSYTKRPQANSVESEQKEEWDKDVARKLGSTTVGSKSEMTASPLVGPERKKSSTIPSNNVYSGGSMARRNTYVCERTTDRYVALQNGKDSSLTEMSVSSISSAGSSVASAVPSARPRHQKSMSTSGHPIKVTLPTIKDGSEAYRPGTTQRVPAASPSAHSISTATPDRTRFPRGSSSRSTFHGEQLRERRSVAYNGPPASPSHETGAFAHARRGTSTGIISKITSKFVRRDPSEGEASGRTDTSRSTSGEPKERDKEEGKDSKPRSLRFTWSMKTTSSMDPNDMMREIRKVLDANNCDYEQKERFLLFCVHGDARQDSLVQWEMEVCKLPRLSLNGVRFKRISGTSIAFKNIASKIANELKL

Sequence of various kinases (Homo sapiens, UniProt P07949, V804E) (P07949 29-1114 V804E): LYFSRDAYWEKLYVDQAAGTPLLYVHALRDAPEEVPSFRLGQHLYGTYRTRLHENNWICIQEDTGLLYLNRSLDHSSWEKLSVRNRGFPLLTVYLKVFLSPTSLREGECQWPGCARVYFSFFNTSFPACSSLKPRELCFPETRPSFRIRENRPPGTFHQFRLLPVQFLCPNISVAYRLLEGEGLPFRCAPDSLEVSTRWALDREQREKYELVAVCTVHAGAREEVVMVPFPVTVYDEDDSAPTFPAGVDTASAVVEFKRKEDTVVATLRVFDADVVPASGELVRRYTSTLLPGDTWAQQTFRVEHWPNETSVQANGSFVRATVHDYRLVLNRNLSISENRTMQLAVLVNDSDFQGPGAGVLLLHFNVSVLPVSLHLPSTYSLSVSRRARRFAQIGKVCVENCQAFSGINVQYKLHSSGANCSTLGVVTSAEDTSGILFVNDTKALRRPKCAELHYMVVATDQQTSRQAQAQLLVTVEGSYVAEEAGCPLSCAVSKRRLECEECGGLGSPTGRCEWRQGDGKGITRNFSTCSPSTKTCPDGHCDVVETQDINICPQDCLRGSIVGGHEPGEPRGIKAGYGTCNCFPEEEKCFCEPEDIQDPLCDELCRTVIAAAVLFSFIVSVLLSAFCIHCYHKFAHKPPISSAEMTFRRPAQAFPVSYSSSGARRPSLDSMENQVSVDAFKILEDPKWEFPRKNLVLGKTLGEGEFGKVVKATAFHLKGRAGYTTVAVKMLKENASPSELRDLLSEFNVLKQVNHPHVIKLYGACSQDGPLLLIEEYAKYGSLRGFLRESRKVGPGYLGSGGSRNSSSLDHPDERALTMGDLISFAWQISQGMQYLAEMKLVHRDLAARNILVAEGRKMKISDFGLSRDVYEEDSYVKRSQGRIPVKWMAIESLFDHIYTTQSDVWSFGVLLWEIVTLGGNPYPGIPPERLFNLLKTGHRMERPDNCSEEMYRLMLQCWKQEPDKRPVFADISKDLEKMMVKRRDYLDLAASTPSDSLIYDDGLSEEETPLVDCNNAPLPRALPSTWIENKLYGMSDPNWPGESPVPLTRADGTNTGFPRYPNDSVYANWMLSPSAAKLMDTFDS
Sequence of various kinases (Homo sapiens, UniProt P07949) (P07949 29-1114): as the sequence (P07949 29-1114 V804E) above, with E776V counted along it
Sequence of various kinases (Homo sapiens, UniProt P51957) (P51957 whole entry): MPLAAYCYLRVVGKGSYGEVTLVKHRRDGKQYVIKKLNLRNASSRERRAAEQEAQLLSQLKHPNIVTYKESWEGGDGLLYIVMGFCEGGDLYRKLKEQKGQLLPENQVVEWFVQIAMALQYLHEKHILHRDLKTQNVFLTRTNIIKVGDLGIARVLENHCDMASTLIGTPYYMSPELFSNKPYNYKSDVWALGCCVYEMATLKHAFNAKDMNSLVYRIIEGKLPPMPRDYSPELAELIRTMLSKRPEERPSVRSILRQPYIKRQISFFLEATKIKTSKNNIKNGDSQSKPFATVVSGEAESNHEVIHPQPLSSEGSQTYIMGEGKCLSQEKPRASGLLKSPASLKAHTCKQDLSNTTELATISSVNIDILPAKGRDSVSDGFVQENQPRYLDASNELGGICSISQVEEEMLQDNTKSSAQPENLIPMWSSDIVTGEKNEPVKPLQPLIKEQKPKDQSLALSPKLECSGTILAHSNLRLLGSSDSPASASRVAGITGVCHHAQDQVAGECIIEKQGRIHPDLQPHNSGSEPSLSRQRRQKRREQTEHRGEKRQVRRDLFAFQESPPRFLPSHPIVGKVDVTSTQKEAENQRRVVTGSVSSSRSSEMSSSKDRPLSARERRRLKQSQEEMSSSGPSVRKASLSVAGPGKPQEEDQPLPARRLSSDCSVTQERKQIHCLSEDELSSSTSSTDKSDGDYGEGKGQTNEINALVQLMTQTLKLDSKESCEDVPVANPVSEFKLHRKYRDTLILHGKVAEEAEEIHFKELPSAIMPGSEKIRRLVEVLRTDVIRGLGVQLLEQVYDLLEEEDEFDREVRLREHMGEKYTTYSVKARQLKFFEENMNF
Sequence of various kinases (Homo sapiens, UniProt P19784) (P19784 whole entry): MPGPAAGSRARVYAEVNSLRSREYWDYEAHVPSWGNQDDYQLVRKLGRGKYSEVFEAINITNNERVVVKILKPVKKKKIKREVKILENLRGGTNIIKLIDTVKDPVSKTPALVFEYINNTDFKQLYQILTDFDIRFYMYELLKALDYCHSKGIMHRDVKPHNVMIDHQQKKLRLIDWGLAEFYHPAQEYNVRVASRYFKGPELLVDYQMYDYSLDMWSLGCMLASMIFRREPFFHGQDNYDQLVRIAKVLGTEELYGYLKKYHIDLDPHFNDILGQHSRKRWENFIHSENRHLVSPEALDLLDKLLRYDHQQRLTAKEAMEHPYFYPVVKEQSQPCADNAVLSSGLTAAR
Sequence of various kinases (Homo sapiens, UniProt P17948) (P17948 27-1338): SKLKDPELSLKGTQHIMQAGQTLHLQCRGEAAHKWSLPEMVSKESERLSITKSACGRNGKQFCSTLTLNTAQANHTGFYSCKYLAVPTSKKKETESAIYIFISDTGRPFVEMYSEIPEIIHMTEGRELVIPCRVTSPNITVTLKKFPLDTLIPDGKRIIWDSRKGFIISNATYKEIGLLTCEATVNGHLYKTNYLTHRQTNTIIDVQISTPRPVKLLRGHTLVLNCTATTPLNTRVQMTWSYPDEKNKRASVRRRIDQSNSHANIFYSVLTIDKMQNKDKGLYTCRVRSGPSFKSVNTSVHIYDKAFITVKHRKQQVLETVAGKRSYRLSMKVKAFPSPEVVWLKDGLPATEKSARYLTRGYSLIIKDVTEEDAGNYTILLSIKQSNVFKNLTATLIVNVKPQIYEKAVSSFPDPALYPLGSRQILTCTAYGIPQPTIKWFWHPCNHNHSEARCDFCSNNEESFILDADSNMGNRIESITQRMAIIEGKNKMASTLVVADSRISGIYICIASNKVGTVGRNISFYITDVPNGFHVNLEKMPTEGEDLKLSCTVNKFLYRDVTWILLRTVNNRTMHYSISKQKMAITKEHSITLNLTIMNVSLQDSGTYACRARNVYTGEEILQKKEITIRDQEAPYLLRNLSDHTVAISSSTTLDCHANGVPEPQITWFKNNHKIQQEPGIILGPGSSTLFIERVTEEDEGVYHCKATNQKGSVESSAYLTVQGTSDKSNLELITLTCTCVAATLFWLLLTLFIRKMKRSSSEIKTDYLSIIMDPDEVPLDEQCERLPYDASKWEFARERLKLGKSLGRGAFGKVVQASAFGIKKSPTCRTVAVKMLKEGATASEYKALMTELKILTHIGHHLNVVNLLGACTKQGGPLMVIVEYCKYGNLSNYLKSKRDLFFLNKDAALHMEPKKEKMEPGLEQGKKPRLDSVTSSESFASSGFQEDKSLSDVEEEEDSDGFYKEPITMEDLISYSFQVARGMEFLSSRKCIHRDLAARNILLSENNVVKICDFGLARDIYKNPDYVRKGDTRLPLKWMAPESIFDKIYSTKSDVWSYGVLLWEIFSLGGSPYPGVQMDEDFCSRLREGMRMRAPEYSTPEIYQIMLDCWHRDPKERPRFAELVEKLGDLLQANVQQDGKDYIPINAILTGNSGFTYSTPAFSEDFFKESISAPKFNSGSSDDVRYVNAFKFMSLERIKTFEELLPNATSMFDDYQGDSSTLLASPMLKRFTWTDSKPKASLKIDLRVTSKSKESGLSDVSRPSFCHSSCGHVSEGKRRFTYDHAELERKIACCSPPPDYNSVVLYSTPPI
Sequence of various kinases (Homo sapiens, UniProt P45984) (P45984 whole entry): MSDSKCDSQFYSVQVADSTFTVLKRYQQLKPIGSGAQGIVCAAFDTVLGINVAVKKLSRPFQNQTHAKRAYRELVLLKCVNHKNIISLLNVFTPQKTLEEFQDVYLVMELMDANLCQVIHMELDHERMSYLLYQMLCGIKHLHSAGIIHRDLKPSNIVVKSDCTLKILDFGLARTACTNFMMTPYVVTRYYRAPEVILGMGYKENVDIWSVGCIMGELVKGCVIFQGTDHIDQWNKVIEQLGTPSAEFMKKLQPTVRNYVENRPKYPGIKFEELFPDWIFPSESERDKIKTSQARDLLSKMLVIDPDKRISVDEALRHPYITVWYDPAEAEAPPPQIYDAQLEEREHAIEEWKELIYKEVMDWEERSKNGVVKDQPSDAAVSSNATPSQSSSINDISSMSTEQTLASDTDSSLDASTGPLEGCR

Compound: COc1ccc2c(c1)[C@]1(C[C@H]1c1ccc3c(/C=C/c4ccc(CN5C[C@@H](C)O[C@@H](C)C5)cc4)n[nH]c3c1)C(=O)N2 [CFI-400945]
- % Inhibition (various kinases [1]): -1% and 3%
- % Inhibition (various kinases [2]): 3% and 4%
- % Inhibition (various kinases [3]): 0% and 1%
- % Inhibition Average (various kinases [4]): 16%
- % Inhibition Duplicate #1 (various kinases [4]): 14%
- % Inhibition Duplicate #2 (various kinases [4]): 18%
- % Inhibition (various kinases [5]): 5%
- % Inhibition Average (various kinases [6]): 6%
- % Inhibition Duplicate #1 (various kinases [6]): 0%
- % Inhibition Duplicate #2 (various kinases [6]): 11%
- % Inhibition (various kinases [7]): 9% and 7%
- % Inhibition (various kinases [8]): -1% and 0%
- % Inhibition (various kinases [9]): 17% and 8%
- % Inhibition (various kinases [10]): 7% and 2%
- % Inhibition (various kinases [11]): -2% and 3%
- % Inhibition (various kinases [12]): 9% and -1%
- % Inhibition Average (various kinases [13]): 4%
- % Inhibition Duplicate #1 (various kinases [13]): 3%
- % Inhibition Duplicate #2 (various kinases [13]): 4%
- % Inhibition Average (various kinases [14]): 6%
- % Inhibition Duplicate #1 (various kinases [14]): 7%
- % Inhibition Duplicate #2 (various kinases [14]): 5%
- % Inhibition (various kinases [15]): 3% and 1%
- % Inhibition Average (various kinases [16]): 0%
- % Inhibition Duplicate #1 (various kinases [16]): 0%
- % Inhibition Duplicate #2 (various kinases [16]): 0%
- % Inhibition (various kinases [17]): 25% and 24%
